Key:
[1] = system: 3T3-L1 adipocytes; assay: Insulin-induced glucose uptake by 3T3-L1 adipocytes after 4-HNE / H2O2 treatment (MRM); assay type: cell-based, mouse; settings: 500 μM for 4 hour, then 100 nM insulin for 60 minutes
Procedure: 3T3-L adipocytes (1×10^6) were treated with either 500 μM of 4-HNE or H2O2 or combination of both for 4 hour and were then stimulated with 100 nM insulin for 60 minutes. The glucose uptake is measured by a specific MRM method.

[2] = biological target: T1, GLUT4 (Homo sapiens, UniProt P14672); assay: HNE-induced GLUT4 carbonylation (K264-HNE adduct) by MRM in 3T3-L1 adipocytes overexpressing GLUT4-SNAP; assay type: cell-based; settings: 20 μM for 4 hour, 3T3-L1 cells overexpressing GLUT4
T1 construct: SNAP (SNAP-tag fusion partner); expressed in transfected cells; host or cells: 3T3-L1 adipocytes, retrovirally transduced
T1 sequence (P14672 1-509): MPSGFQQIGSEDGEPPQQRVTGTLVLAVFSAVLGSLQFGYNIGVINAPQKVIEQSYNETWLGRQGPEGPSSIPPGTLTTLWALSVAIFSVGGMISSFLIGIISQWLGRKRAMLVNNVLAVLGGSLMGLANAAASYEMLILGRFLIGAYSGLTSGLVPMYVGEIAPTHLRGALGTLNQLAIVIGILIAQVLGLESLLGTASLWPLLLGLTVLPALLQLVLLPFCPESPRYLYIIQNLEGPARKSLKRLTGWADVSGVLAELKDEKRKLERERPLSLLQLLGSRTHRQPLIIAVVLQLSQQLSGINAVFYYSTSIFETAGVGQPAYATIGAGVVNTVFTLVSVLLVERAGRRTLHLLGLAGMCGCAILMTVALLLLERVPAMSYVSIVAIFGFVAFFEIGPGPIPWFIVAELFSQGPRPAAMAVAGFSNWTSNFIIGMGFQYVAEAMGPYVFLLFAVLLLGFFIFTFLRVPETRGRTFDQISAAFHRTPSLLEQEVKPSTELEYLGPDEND
Procedure: A GLUT4-SNAP fusion construct is generated. 3T3-L1 adipocytes were then retrovirally transduced with the construct to overexpress the GLUT4-SNAP protein. Twenty-four hours after the transduction, the cells were treated with and without 20 μM of 4-HNE for an additional 4 hours. This 4-HNE dose is chosen because it is similar to the physiological levels and is non-toxic. In order to identify and quantitate GLUT4 carbonylation (K264 NHE-adduct or R265 and R246 glutamic semialdehyde adducts), a mass spectroscopy-based multiple reaction monitoring (MRM) method is developed and validated.
[…] of the GLUT4 peptide found in humans were used for quantitation.

Row | SMILES | reduction of insulin-induced glucose uptake [1] [%] | formation of the K264-HNE adduct (GLUT4 carbonylation) [2]
1 | CCCCCC(O)/C=C/C=O (stereo not drawn) [Example 4-HNE, 4-hydroxynonenal] | 32 | induced the formation of the K264-HNE adduct
2 | OO [Example H2O2] | 66 | –

Reference: US20200392075A1, “COMPOSITIONS AND METHODS FOR TREATMENT OF INSULIN RESISTANCE” (Temple University - Of The Commonwealth System Of Higher …, priority 2018, published 2020)
